Laboratory results taken from US20240075000A1 (priority 2021, published 2024).

Assays:
[1] = tested on: mitochondrial production and density; conditions: cited from earlier work
[2] = tested on: glucose uptake; conditions: diabetic patients and Alzheimer's patients; cited from earlier work
[3] = tested on: cancer cells; conditions: glioblastoma; cited from earlier work
[4] = tested on: post-COVID-19 fatigue patient; test: post-COVID-19 fatigue case, physician (Example 3); conditions: 500 mg BID
[5] = tested on: cancer patients; test: cancer patient fatigue case reports (Examples 13-17); assay type: in vivo, human
Source text: A cancer patient with recurrent stage 4 glioblastoma multiforme encountered significant fatigue as part of the ongoing disease.
A cancer patient with Stage 2 primary prostate cancer experienced significant fatigue. […] The patient has been able to eliminate pathological fatigue for 4 years now and is continuing the dosage.
A cancer patient with stage 4 primary hepatocellular carcinoma experienced significant fatigue, and due to cancer progression, was placed in hospice.
A cancer patient with stage 4 breast cancer experienced pathological fatigue.
A cancer patient with stage 3 colon cancer experienced pathological fatigue. […] The patient continued to be fatigue-free and went into cancer remission, which was also fatigue free.

[6] = tested on: patient diagnosed with Fibromyalgia; test: Fibromyalgia patient fatigue case; assay type: in vivo, human
Source text: A patient diagnosed with Fibromyalgia had significant fatigue. […] They increased their dosage to 6 capsules per day and has seen more than a 50% improvement in their fatigue.

[7] = LD50 toxicity; conditions: in vivo
Method: The dose ratio between toxic and therapeutic effects is the therapeutic index and it can be expressed as the ratio LD50/ED50. […] The “no observable adverse effects level” (NOAEL) in a 90-day sub-chronic rat study was 500 mg/kg (the highest dose in the test).

[8] = tested on: patients with post-COVID-19 fatigue; test: clinical trial in Long Haul post-COVID-19 fatigue; conditions: oral 500 mg BID, 6 weeks
Method: Fatigue is assessed by the Chalder Fatigue Scale, the Fatigue Severity Scale, and PROMIS-Fatigue-Short Form 7a. Scores are summarized as means and standard deviations and confidence intervals will be calculated. Changes are also summarized as effect sizes. […] All patients provided written informed consent to participate in the study prior to being screened.
18 patients who suffered from “Long Haul” post-COVID-19 fatigue for an average of 6 months were recruited to a clinical trial.

[9] = tested on: pneumonia patient; test: fatigue after pneumonia, patient testimonial; assay type: in vivo, human; conditions: 500 mg daily
Source text: The Inventor has supplied Anhydrous Enol-Oxaloacetate for fatigue after pneumonia. Pneumonia patients often suffer from physiological fatigue. In a retrospective study of 506 adults with clinical and radiographic evidence of pneumonia, […] of the patients suffered from fatigue at 90 days after diagnosis. (Metlay J P, Fine M J, Schulz R, Marrie T J, Coley C M, Kapoor W N, et al. Measuring symptomatic and functional recovery in patients with community-acquired pneumonia. J Gen Intern Med. 1997; 12(7):423-30). […] The place where oxaloacetate made the most significant difference for me was in alleviation of the crushing fatigue that accompanied the pneumonia. […] On querying nurses and physical therapists about this response, the universal answer was that it was “typical.” Speaking with people who had had pneumonia at different ages—granted that this is anecdotal—garnered consistent stories of extreme fatigue and a slow recovery that took years to achieve prior energy levels even with people who had been physically active teenagers at the time. • I was in the hospital for 2 weeks and then in skilled care for about 6 weeks, putting me in the 40% of the population that don't manage to avoid hospitalization. […]

[10] = tested on: patients with ME/CFS; test: clinical trial in ME/CFS, three dosage levels; assay type: in vivo, human
[11] = tested on: Mouse Soleus Muscle; conditions: normal cells, fatigue stimulated by electrical current applied to the muscle; cited from earlier work
[12] = tested on: patient with Alzheimer's disease; test: Alzheimer's disease patient fatigue case; assay type: in vivo, human; conditions: caregiver testimonial
Source text: A patient with Alzheimer's disease experienced significant muscle and mental fatigue. […] The testimonial is shown below.

[13] = tested on: ALS patient; test: ALS patient on long-term supplementation; assay type: in vivo, human; conditions: 3,000 mg daily, after 8 months
Source text: For ALS, this is surprising and welcome news as the anticipated decline rate for this period of time ranges from 12% to 43% as measured by the ALS FRS. (Ong M L, Tan P F, Holbrook J D. Predicting functional decline and survival in amyotrophic lateral sclerosis. PLoS One. 2017; 12(4):e0174925. Published 2017 Apr. 13. doi:10.1371/journal.pone.0174925).
The patient's email: • “Dear Alan, Good afternoon. […] We are thrilled! Could we please have some more medicine? Thanks!”

[14] = tested on: Parkinson's patients; test: double blinded placebo-controlled trial in Parkinson's patients, MDS-UPDRS fatigue question 1.13; assay type: in vivo, human; conditions: 2 capsules benaGene (100 mg oxaloacetate/150 mg ascorbic acid) per day, 4 months, P value<0.05, 13 patients
Method: As used herein, the term “MDS-UPDRS” refers to the “Movement Disorder Society-Sponsored Revision of the United Parkinson's Disease Rating Scale” (Goetz et al, Movement Disorder Society-Sponsored Revision of the United Parkinson's Disease Rating Scale (MDS-UPDRS): Scale Presentation and Clinimetric Testing Results, Movement Disorders Vol. 23, No. 15, 2008, pp. 2129-2170).
Based on the findings of the Inventor, a clinical trial was performed on Parkinson's Disease patients. The trial used the MDS-UPDRS (Goetz et al, Movement Disorder Society-Sponsored Revision of the United Parkinson's Disease Rating Scale (MDS-UPDRS): Scale Presentation and Clinimetric Testing Results, Movement Disorders Vol. 23, No. 15, 2008, pp. 2129-2170) (45) as a validated method to clinically measure pathological fatigue in Parkinson's patients. The Fatigue question is as follows: • 1.13 Fatigue • Over the past week, have you usually felt fatigued? This feeling is not part of being sleepy or sad • 0: Normal: No fatigue • 1: Slight: Fatigue occurs.

[15] = tested on: resistance-trained adults; conditions: in vivo; cited from earlier work
[16] = tested on: fetus; conditions: in vivo; cited from earlier work

O=C(O)CC(=O)C(=O)O [oxaloacetate, 2-oxobutanedioic Acid]
mitochondrial production and density [1]: increased mitochondrial production and density | glucose uptake [2]: increase glucose uptake | glycolysis and formation of lactate [3]: reducing both glycolysis and the formation of lactate | side effect reported by the patient [4]: nausea | pathological fatigue ([5]; Stage 2 primary prostate cancer, 1,000 mg daily, 4 years): ameliorated | adverse events ([5]; glioblastoma patient, 6,000 mg daily for one year): without any significant adverse events | side effects ([5]; hepatocellular carcinoma patient, 3,000 mg per day for 10 months): without side effects | side effects ([5]; prostate cancer patient, 1,000 mg daily): No side effects | fatigue associated with the cancer ([5]; recurrent stage 4 glioblastoma multiforme, 6,000 mg daily): ameliorated | fatigue ([5]; stage 3 colon cancer, 1,000 mg per day (500 mg BID)): significant reduction in fatigue | fatigue ([5]; stage 4 breast cancer, 1,000 mg per day, after 3 days): significant reduction in fatigue | fatigue ([5]; stage 4 primary hepatocellular carcinoma, 3,000 mg per day): significant reduction in fatigue | fatigue ([6]; 2 capsules of 100 mg per day): improvement | improvement in fatigue ([6]; 6 capsules of 100 mg per day): > 50% | LD50 [7]: above 5 g/kg of body weight | adverse events during the trial [8]: no significant adverse events | reduction in fatigue compared to baseline, PROMIS Fatigue Short Form 7a ([8]; 18 patients, P<0.005): 21% | reduction in fatigue from baseline, Fatigue Severity Scale ([8]; 18 patients, P<0.005): 15% | reduction of fatigue from baseline, Chalder Fatigue Scale ([8]; 18 patients, P<0.005): 45% | reduction, Visual Analogue Fatigue Scale ([8]; 18 patients, P<0.05): 56% | fatigue after Pneumonia [9]: rapid resolution of fatigue | reduction from baseline fatigue, Chalder Fatigue Scale ([10]; 500 mg BID, 2 weeks, N=22): 15.3% | reduction in fatigue, Chalder Fatigue Scale ([10]; 500 mg BID, 6-weeks, N=22): 21.9% | reduction in fatigue, Chalder Fatigue Scale ([10]; 1,000 mg BID, 6-weeks, N=25): 30.2% | reduction in fatigue, Chalder Fatigue Scale ([10]; 1,000 mg TID, 2 weeks, N=22): 17.5% | severe Adverse Effects recorded in the study ([10]; 69 patients, all dosage levels): no severe Adverse Effects | patients in the study improved over historical placebo ([10]; historical placebo effect 5.9%): 76.8% | patients who experienced insomnia ([10]; of 69, resolved by moving dosing to breakfast and lunch): 1 patient | patients who experienced dyspepsia ([10]; of 69, resolved by taking with food): 4 patients | muscle endurance and muscle fatigue [11]: increase muscle endurance and reduce muscle fatigue | mental and physical pathological fatigue [12]: significantly reduces mental and physical pathological fatigue | function, fatigue/muscle function [13]: no decline in function | improvement of MDS-UPDRS fatigue score over baseline [14]: 28.7%

Cn1c(=O)c2c(ncn2C)n(C)c1=O [Caffeine]
effects on muscular performance [15]: minimal effects on muscular performance

C[C@H](N)Cc1ccccc1 [dextroamphetamine]
animal reproduction studies, finding [16]: adverse effect on the fetus

CC(N)Cc1ccccc1 (centres unmarked) [amphetamine]
animal reproduction studies, finding [16]: adverse effect on the fetus

NC(=O)C[S+]([O-])C(c1ccccc1)c1ccccc1 (centres unmarked) [Modafinil]
animal reproduction studies, finding [16]: adverse effect on the fetus

COC(=O)C(c1ccccc1)C1CCCCN1 (centres unmarked) [methylphenidate]
animal reproduction studies, finding [16]: adverse effect on the fetus
